# Reference: PubChem BioAssay (NCI)
# “And” between values parts separate entries of the source, which are not always exact repeats. Equal entries are not always repeated.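 How tested: cells in 96-well plates exposed to compound for 48 hours at five concentrations. Here, GI50 denotes the concentration required for 50% inhibition of growth. TGI marks complete inhibition of growth.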
# Experiments:
# Experiment in all cases: growth of human tumour cells (NCI), 48 h
# MCF7 breast = test system: MCF7 breast
# NCI-H522 lung = test system: NCI-H522 lung
# RPMI-8226 leukemia = test system: RPMI-8226 leukemia
# SF-268 CNS = test system: SF-268 CNS
# M14 melanoma = test system: M14 melanoma
# HT29 colon = test system: HT29 colon
# HCT-15 colon = test system: HCT-15 colon
# CAKI-1 renal = test system: CAKI-1 renal
# MALME-3M melanoma = test system: MALME-3M melanoma
# EKVX NSCLC = test system: EKVX NSCLC
# SNB-75 CNS = test system: SNB-75 CNS
# KM12 colon = test system: KM12 colon
Structure (SMILES),TGI (MCF7 breast) [µM],TGI (NCI-H522 lung) [µM],TGI (RPMI-8226 leukemia),TGI (SF-268 CNS) [µM],TGI (M14 melanoma) [µM],TGI (HT29 colon) [µM],TGI (HCT-15 colon) [µM],TGI (CAKI-1 renal) [µM],TGI (MALME-3M melanoma) [µM],TGI (EKVX NSCLC) [µM],TGI (SNB-75 CNS) [µM],TGI (KM12 colon) [µM],GI50 (MCF7 breast) [µM],GI50 (NCI-H522 lung) [µM],GI50 (SF-268 CNS) [µM],GI50 (HT29 colon) [µM],GI50 (HCT-15 colon) [µM],GI50 (CAKI-1 renal) [µM],GI50 (SNB-75 CNS) [µM],GI50 (KM12 colon) [µM]
CC(C)(C)c1cc(-c2cc(C(C)(C)C)[nH]n2)n[nH]1,> 100,> 100,> 100 µM,> 100,> 100,> 100,> 100,> 100,> 100,> 100,,,,,,,,,,
c1cnn(C23C4C5C6C4C2C6C53)c1 (stereo not given),> 100,> 100,> 100 µM,> 100,,> 100,> 100,,,> 100,> 100,> 100,,,,,,,,
COc1cc([C@@H]2c3cc4c(c(O)c3C[C@H]3COC(=O)[C@@H]32)OCO4)cc(OC)c1OC,,,27.4 µM and > 241 µM,,> 122,,,,,,,,0.0349,0.393,0.501,1.18,0.19,0.222,0.0203,0.104
CC1(C)CC(=O)C(/C=N/C(N)=S)=C(O)C1,> 100,> 100,,> 100,> 100,> 100,> 100,> 100,,> 100,> 100,> 100,,,,,,,,
COC(=O)[C@H](Cc1ccccc1)NC(=O)/C(=C/C(C)C)NC(=O)[C@H](CCSC)NC=O,,> 100,> 100 µM,> 100,> 100,> 100,> 100,> 100,,> 100,> 100,> 100,,,,,,,,
Nc1ccccc1Nc1ccccc1C(=O)[O-].Nc1ccccc1Nc1ccccc1C(=O)[O-].[Zn+2],,44.4,> 100 µM,> 100,> 100,> 100,> 100,> 100,> 100,> 100,49.1,> 100,,,,,,,,
COc1cc(/C=C2/SC(c3ccccc3)N(Cc3ccccc3)C2=O)cc(OC)c1OC (stereo not given),> 100,63,75.1 µM,> 100,> 100,> 100,> 100,> 100,> 100,> 100,,> 100,,,,,,,,
NC1=NC2=c3ccccc3=C(c3cnccn3)C2(c2cnccn2)c2ccccc21 (stereo not given),,> 100,> 100 µM,> 100,> 100,> 100,> 100,> 100,> 100,> 100,> 100,> 100,,,,,,,,
CC(=O)OC1CC2CCN3C(=O)c4cc5c(cc4[C@H](C1OC(C)=O)C23)OCO5 (stereo not given in full),,> 100,> 100 µM,> 100,> 100,> 100,> 100,,> 100,> 100,> 100,> 100,,,,,,,,
O=C(NC(Cl)(C(F)(F)F)C(F)(F)F)c1ccc(F)cc1,> 100,,> 100 µM,> 100,> 100,> 100,> 100,> 100,> 100,> 100,91.6,> 100,,,,,,,,
CCN1CCCC(C#N)(c2ccccc2)CC1 (stereo not given),,,> 100 µM,> 100,> 100,> 100,> 100,> 100,> 100,> 100,> 100,> 100,,,,,,,,
O=C(O)CSCc1cc2c(O)c(c1)Cc1cc(CSCC(=O)O)cc(c1O)Cc1cc(CSCC(=O)O)cc(c1O)Cc1cc(CSCC(=O)O)cc(c1O)C2,> 100,> 100,> 100 µM,> 100,> 100,> 100,> 100,> 100,> 100,> 100,,> 100,,,,,,,,
O=Cc1c2n(c3ccccc13)N[C@@](Cc1ccc(O)cc1)(C(=O)O)C2,> 100,> 100,> 100 µM,> 100,> 100,> 100,> 100,> 100,> 100,> 100,,> 100,,,,,,,,
N#C[C@H](C(=O)c1ccccc1F)c1nc2ccccc2s1,,69.3,> 100 µM,> 100,> 100,> 100,> 100,> 100,56.2,> 100,> 100,38.6,,,,,,,,
CCN(CC)Cc1cc(Nc2c3ccccc3nc3c2[nH]c2ccccc23)cc(CN(CC)CC)c1O,9.07,2.47,,4.73,1.33,5.1,3.4,4.26,,3.12,2.97,10.6,,,,,,,,
C(/C=C/c1ccccc1)=Nc1ccc2c(c1)Cc1ccccc1-2,,> 100,,> 100,> 100,> 100,> 100,> 100,> 100,> 100,> 100,> 100,,,,,,,,
CCOc1ccc2nc3nc(=O)[nH]c(C)c3c(NCCCN(CC)CC)c2c1,> 100,> 100,,> 100,> 100,> 100,> 100,> 100,> 100,> 100,> 100,> 100,,,,,,,,
CCOP(=O)(C=C=C1CCC2[C@@H]3CCc4cc(OC)ccc4C3CC[C@]12C)OCC (stereo not given in full),20.7,18.9,,28,24.3,17.7,24.8,26.6,30.3,21.9,25.5,26.2,,,,,,,,
N#CC(N)c1ccc(OCCCCCCCCCCOc2ccc(C(N)C#N)cc2)cc1 (stereo not given),> 100,> 100,,> 100,> 100,> 100,> 100,> 100,> 100,> 100,,> 100,,,,,,,,
CCN(CC)C(=O)Cn1c(-c2ccccc2)cc2ccccc21,> 100,> 100,,> 100,> 100,> 100,> 100,,> 100,> 100,> 100,> 100,,,,,,,,

Structure (SMILES),TGI (MCF7 breast) [µM],TGI (NCI-H522 lung) [µM],TGI (RPMI-8226 leukemia),TGI (SF-268 CNS) [µM],TGI (M14 melanoma) [µM],TGI (HT29 colon) [µM],TGI (HCT-15 colon) [µM],TGI (CAKI-1 renal) [µM],TGI (MALME-3M melanoma) [µM],TGI (EKVX NSCLC) [µM],TGI (SNB-75 CNS) [µM],TGI (KM12 colon) [µM],GI50 (MCF7 breast) [µM],GI50 (NCI-H522 lung) [µM],GI50 (SF-268 CNS) [µM],GI50 (HT29 colon) [µM],GI50 (HCT-15 colon) [µM],GI50 (CAKI-1 renal) [µM],GI50 (SNB-75 CNS) [µM],GI50 (KM12 colon) [µM]
O=C(CC(CC(=O)Oc1c(Br)cc(Br)cc1C(=O)O)C(=O)Oc1c(Br)cc(Br)cc1C(=O)O)Oc1c(Br)cc(Br)cc1C(=O)O,,55.4,> 100 µM,> 100,> 100,> 100,> 100,> 100,> 100,> 100,93.3,> 100,,,,,,,,
O=P1(Oc2ccccc2)N=P(c2ccccc2)(c2ccccc2)C=C(c2ccc(Cl)cc2)N1 (stereo not given),9.31,24.2,9.55 µM,26.2,21.1,15.5,21.9,23,29.6,21.6,,25.1,,,,,,,,
CCOP(=O)(OCC)C(C)(C)N(C)/C(F)=N/C(F)(F)F,> 100,,> 100 µM,> 100,> 100,> 100,> 100,> 100,> 100,> 100,> 100,> 100,,,,,,,,
CCCCCC1CC=CC(=O)O1 (stereo not given),40.3,9.71,12.4 µM,40.8,26.6,17.8,21.9,20.5,20.2,20.6,,20.5,,,,,,,,
Cc1ccc(S(=O)(=O)CN2C(=O)C(c3ccccc3)(c3ccccc3)C23OC(c2ccc(Cl)cc2)=CC3=O)cc1 (stereo not given),> 10,> 10,,> 10,> 10,> 10,> 10,> 10,> 10,> 10,> 10,> 10,,,,,,,,
OCc1cc2c(ccc3sc4ccc5sc6ccc7ncccc7c6c5c4c32)s1,42.2,27.6,96.2 µM,,,39.7,33.6,36.6,,29.7,22.8,20.4,,,,,,,,
Cc1ccc(/C=N/n2c(Cc3ccccc3)n[nH]c2=O)cc1,,> 100,> 100 µM,> 100,> 100,> 100,> 100,> 100,> 100,> 100,> 100,> 100,,,,,,,,
C=C1CCCC2[C@](C)(CC3=C(Cl)C(=O)C=C(OC)C3=O)C(C)CC[C@]12C (stereo not given in full),6.18,3.18,14.6 µM,11.6,10.3,7.37,13.9,8.83,16.3,5.06,,8.14,,,,,,,,
Cc1c(C)c(C)c(CC2(C)CSC2)c(CC2(C)CSC2)c1C,> 100,> 100,> 100 µM,> 100,> 100,> 100,> 100,,> 100,> 100,> 100,,,,,,,,,
Cc1[nH]c(=O)nc2c1C(NCCCN(C)C)c1cc(Cl)ccc1N2 (stereo not given),,28.5,44 µM,30.5,21.3,22.2,,,30.3,30.1,26.2,30.3,,,,,,,,
Nc1ccc2nc3c(nc2c1)C(=O)c1ccccc1-3,> 100,> 100,> 100 µM,> 100,> 100,> 100,> 100,,> 100,> 100,> 100,> 100,,,,,,,,
CC(=O)OCC(C)C1=C(OC(C)=O)C(=O)C2(C)C/C=C(/C)CC/C=C(\C)CCC(OC(C)=O)C(C)CCC12 (stereo not given),38.2,,35.3 µM,35,34.2,33.5,34,,,,> 100,36.9,,,,,,,,
O=C(O)CSC(CC1(c2ccc(Cl)cc2)NC(=O)CS1)c1ccc(Cl)cc1 (stereo not given),> 100,> 100,> 100 µM,> 100,> 100,> 100,> 100,> 100,,> 100,> 100,> 100,,,,,,,,
CCCC(=O)Nc1cc(/C=C/C(=O)N2CC(CCl)c3c2cc(OCc2ccccc2)c2[nH]cc(C)c32)n(C)c1 (stereo not given),,0.0267,1.3 µM,0.907,,0.488,0.93,2.09,0.353,0.635,0.381,0.602,,,,,,,,
CCCCc1ccc(Nc2nc(Cl)c3ncn(COCCOC(C)=O)c3n2)cc1,93.7,42.9,55.4 µM,36.9,36.7,32.2,31.6,,31.7,20.3,44.3,41.3,,,,,,,,
Oc1ccc2c(c1)CCc1c-2n(CCN2CCOCC2)c2ccc(O)cc12,> 100,,> 100 µM,> 100,> 100,,> 100,> 100,75.6,> 100,78.1,52.9,,,,,,,,
COc1cc2nc(Nc3cccc(Br)c3)nc(Nc3cccc(Br)c3)c2cc1OC,32.4,32.4,,29.9,32.3,34.8,33.3,29.8,34.7,39.8,31.8,36.7,,,,,,,,
Clc1c(Cl)c(Cl)c2c(nnn2C2CCCO2)c1Cl (stereo not given),> 100,66.6,,> 100,> 100,> 100,67,74.9,80.4,73.4,40.3,,,,,,,,,
Cc1cc(O)c2c(c1O)C(=O)c1cccc(O)c1C2=O,> 100,> 100,> 100 µM,> 100,> 100,> 100,> 100,> 100,,> 100,> 100,> 100,,,,,,,,
COc1ccc(NC(=S)N/N=C\c2ccc(NC(C)=O)cc2)cc1,,> 100,> 100 µM,,> 100,> 100,,> 100,> 100,> 100,> 100,> 100,,,,,,,,
